Measurements as given in patent publication US20150152101A1, “ACTIVE COMPOUNDS FOR COMBATING GREASY SKIN” (L'OREAL, priority 2012, published 2015).

Tests used:
Type in all cases: cell-based
corneodesmosin = assay: Western blot of corneodesmosin in extracts of treated Episkin reconstructed epidermis; conditions: systemic treatment over 5 days, grade relative to reference, generally for the highest concentration used (tested 1 and 10 μM), (*) = most active
Experimental: (§1) The samples of reconstructed epidermis, received from the company Episkin at six days of reconstruction, were recultured as soon as received in 3.5 ml of differentiation medium (Episkin™ medium) under insert (in immersion) for 48 hours in an incubator (37° C., 5% CO2).
(§2) The epidermis samples were then placed in contact with the test compounds systemically. The Episkin™ differentiation culture medium is changed for a differentiation medium containing the test compounds with 0.1% of final DMSO vehicle. The epidermis samples were recultured in an incubator for 48 hours. A new systemic treatment is performed for a further 72 hours of culture in the incubator.
For the treatment on Episkin™, each test compound was prepared extemporaneously by weighing out and dissolving at 10 mM in DMSO, and was then used to treat 3 samples of reconstructed epidermis. Furthermore, each test compound was used in a proportion of 1 and 10 μM final in the culture medium (0.1% DMSO final). The positive controls used were vitamin D3, retinol and calcipotriol (a vitamin D3 analogue).
The epidermis samples were collected (3 epidermis samples per treatment) for histological analysis and protein extracts (the same reconstructed epidermis is used for the histological study and the protein extract). […]

Ki67 = Ki67 immunolabelling of treated Episkin reconstructed epidermis; conditions: for Ki67: Episkin, systemic treatment over 5 days
Experimental: as §1, §2
(§3) For the treatment on Episkin™, each test compound was prepared extemporaneously by weighing out and dissolving at 10 mM in DMSO, and was then used to treat 3 samples of reconstructed epidermis. […] The positive controls used were vitamin D3, retinol and calcipotriol (a vitamin D3 analogue).
(§4) The epidermis samples were collected (3 epidermis samples per treatment) for histological analysis and protein extracts (the same reconstructed epidermis is used for the histological study and the protein extract).
The epidermis samples were included in OCT for freezing in liquid nitrogen and then stored at −80° C. The blocks obtained were sliced using a cryostat to a thickness of 7 μm, and the slices were dried and stored at −20° C. while awaiting immunolabelling.
The marker chosen for the immunolabellings is Ki67, which affords information regarding a possible modification of the cell proliferation in the basal layer.

[1] = tested on: Episkin™ reconstructed epidermis; assay: HES morphological observation of treated Episkin reconstructed epidermis; conditions: systemic treatment over 5 days
Experimental: as §1, §2, §3, §4
The morphological control of the treated reconstructed epidermis samples was performed by staining with HES (haematoxylin-eosin-saffron) according to a standard protocol on histological slices of the samples included in paraffin (toluene bath: three times 15 minutes; 100° alcohol baths: twice for 1 minute; 95° alcohol baths: 1 minute; rinsing in water baths; haematoxylin bath: once for 2 minutes; rinsing in water baths; short dipping in a hydrochloric acid bath; rinsing in water; eosin bath: once for 1 minute; rinsing in water; short dipping in a 100° alcohol bath; saffron bath (5 minutes); short dipping in a 100° alcohol bath; toluene bath: three times for 2 minutes).

[2] = grade relative to reference, generally for the highest concentration used (tested 1 and 10 μM), (*) = most active

Structure (SMILES)	CDSN (corneodesmosin)	HES [1, 2]	also measured
COc1cccc(C2C3=C(Nc4c2c(=O)n(C)c(=O)n4C)c2ccccc2C3=O)c1 (centres unmarked) [Compound (1)]	++ (*)	–	–
Cn1c2c(c(=O)n(C)c1=O)C(c1cccc(O)c1)C1=C(N2)c2ccccc2C1=O (centres unmarked) [Compound (2)]	–	–	Ki67 (Ki67; grade relative to reference, generally for the highest concentration used (tested 1 and 10 μM)): 0
Cn1c2c(c(=O)n(C)c1=O)C(c1ccc(O)cc1)C1=C(N2)c2ccccc2C1=O (centres unmarked) [Compound (5)]	–	–	Ki67 labelling (FIG. 2) (Ki67; Episkin treated in the absence and presence of compound, result in words): marked, or even occasionally total, decrease of the Ki67 labelling
COc1cc(C2C3=C(Nc4c2c(=O)n(C)c(=O)n4C)c2ccccc2C3=O)cc(OC)c1O (centres unmarked) [Compound (6)]	–	++ (*)	–
CC1=C(/C=C/C(C)=C/C=C/C(C)=C/CO)C(C)(C)CCC1 [Retinol]	–	–	HES ([1]; 100 μM): 0; Ki67 (Ki67; 100 μM): 0
C=C1CC[C@H](O)C/C1=C/C=C1\CCC[C@]2(C)[C@@H]([C@H](C)CCCC(C)C)CC[C@@H]12 [Vitamin D3]	0	0	–
